Where a name gives a salt, the structure may show the parent alone.
test system: Phosphorylated eIF4E; experiment: peIF4E Signaling Cellular Assay (CisBio peIF4E HTRF); format: cell-based; conditions: cells incubated with compound for 2 hrs at 37° C., 12-point curve
Description: Phosphorylated eIF4E is assayed using the CisBio peIF4E HTRF® assay kit (CisBio, catalogue No. 64EF4PEG). Cells are plated in 96-well tissue-culture treated plate in appropriate growth medium (90 μL). Compounds (10×) are diluted using 3-fold serial dilutions in cell culture medium and added to cells. Plates are incubated for 2 hrs at 37° C. The cell supernatant is carefully removed either by aspirating supernatant or by flicking the plate. Immediately 50 μL of supplemented lysis buffer (1×) is added and incubated for at least 30 minutes at room temperature under shaking. After homogenization by pipeting up and down, 16 μL of cell lysate is transferred from the 96-well cell-culture plate to a 384-well small volume white plate. 4 μL of premixed antibody solutions (vol/vol) is prepared in the detection buffer and added. The plate is covered with a plate sealer and incubated overnight at room temperature. The fluorescence emissions at two different wavelengths are read (665 nm and 620 nm) on a Wallac Victor2. Emission ratios are converted into percent inhibitions and imported into GraphPad Prism software. […] IC50 values are determined using a nonlinear regression model available in GraphPad Prism 5.

**Q.** With COc1cncnc1Nc1cc(C)c2c(c1)C1(CCN(C)CC1)NC2=O [Cpd. No. 60, 6-((5-methoxypyrimidin-4-yl)amino)-1′,4-dimethylspiro [isoindoline-1,4′-piperidin]-3-one] as the compound, how does the IC50 read?
**A.** The IC50 was 50 to 1000 nM.

**Q.** Which IC50 does the source give for Cc1cc(Nc2ncncc2C#N)cc2c1C(=O)NC21CCN(C)CC1 [Cpd. No. 61, 4-((1′,4-dimethyl-3-oxospiro[isoindoline-1,4′-piperidin]-6-yl)amino)pyrimidine-5-carbonitrile trifluoroacetic acid salt] here?
**A.** The IC50 was 1000 to 100000 nM.

**Q.** For Cc1cc(Nc2ncnc(N)c2C)cc2c1C(=O)NC21CCN(C)CC1 [Cpd. No. 62, 6-((6-amino-5-methylpyrimidin-4-yl)amino)-1′,4-dimethylspiro[isoindoline-1,4′-piperidin]-3-one], which IC50 is on record?
**A.** The IC50 was 1000 to 100000 nM.

**Q.** With Cc1cc(Nc2ncncc2C#N)cc2c1C(=O)NC21CCCCC1 [Cpd. No. 63, 4-((4′-methyl-3′-oxospiro[cyclohexane-1,1′-isoindolin]-6′-yl)amino)pyrimidine-5-carbonitrile] as the compound, how does the IC50 read?
**A.** Its IC50 is 50 to 1000 nM.

**Q.** Cc1cc(Nc2ncncc2C(N)=O)cc2c1C(=O)NC21CCCCC1 [Cpd. No. 64, 4-((4′-methyl-3′-oxospiro[cyclohexane-1,1′-isoindolin]-6′-yl)amino)pyrimidine-5-carboxamide] was tested. Which IC50 did it give?
**A.** The IC50 was 50 to 1000 nM.

**Q.** COc1cncnc1Nc1cc(C)c2c(c1)C1(CCN(CC(F)F)CC1)NC2=O [Cpd. No. 65, 1′-(2,2-difluoroethyl)-6-((5-methoxypyrimidin-4-yl)amino)-4-methylspiro[isoindoline-1,4′-piperidin]-3-one] was tested. Which IC50 did it give?
**A.** The IC50 was 50 to 1000 nM.

**Q.** Which IC50 does the source give for Cc1cc(Nc2ncnc(N)c2C)cc2c1C(=O)NC21CCN(CC(F)F)CC1 [Cpd. No. 66, 6-((6-amino-5-methylpyrimidin-4-yl)amino)-1′-(2,2-difluoroethyl)-4-methylspiro[isoindoline-1,4′-piperidin]-3-one] here?
**A.** Its IC50 is 50 to 1000 nM.

**Q.** For Cc1cc(Nc2ncncc2C#N)cc2c1C(=O)NC21CCN(CC(F)F)CC1 [Cpd. No. 67, 4-((1′-(2,2-difluoroethyl)-4-methyl-3-oxospiro[isoindoline-1,4′-piperidin]-6-yl)amino)pyrimidine-5-carbonitrile], which IC50 is on record?
**A.** The IC50 was 1000 to 100000 nM.

**Q.** How did the IC50 turn out when COc1c(N)ncnc1Nc1cc(C)c2c(c1)C1(CCN(C)CC1)NC2=O [Cpd. No. 68, 6-((6-amino-5-methoxypyrimidin-4-yl)amino)-1′,4-dimethylspiro[isoindoline-1,4′-piperidin]-3-one] was run?
**A.** The IC50 was 50 to 1000 nM.

**Q.** With COc1c(N)ncnc1Nc1cc(C)c2c(c1)C1(CCN(CC(F)F)CC1)NC2=O [Cpd. No. 69, 6-((6-amino-5-methoxypyrimidin-4-yl)amino)-1′-(2,2-difluoroethyl)-4-methylspiro[isoindoline-1,4′-piperidin]-3-one] as the compound, how does the IC50 read?
**A.** Its IC50 is 50 to 1000 nM.

**Q.** With Cc1cc(Nc2cc(N)ncn2)nc2c1C(=O)NC21CCCCC1 [Cpd. No. 70, 2′-((6-aminopyrimidin-4-yl)amino)-4′-methylspiro[cyclohexane-1,7′-pyrrolo[3,4-b]pyridin]-5′(6′H)-one] as the compound, how does the IC50 read?
**A.** The IC50 was < 50 nM.

**Q.** How did the IC50 turn out when Cc1cc(Nc2ncnc(N)c2Cl)nc2c1C(=O)NC21CCCCC1 [Cpd. No. 73, 2′-((6-amino-5-chloropyrimidin-4-yl)amino)-4′-methylspiro[cyclohexane-1,7′-pyrrolo[3,4-b]pyridin]-5′(6′H)-one] was run?
**A.** Its IC50 is < 50 nM.

**Q.** Which IC50 does the source give for Cc1cc(Nc2ncnc(N)c2C)cc2c1C(=O)NC21CCOCC1 [Cpd. No. 74, 6-((6-amino-5-methylpyrimidin-4-yl)amino)-4-methyl-2′,3′,5′,6′-tetrahydrospiro[isoindoline-1,4′-pyran]-3-one] here?
**A.** Its IC50 is 50 to 1000 nM.

**Q.** With Cc1cc(Nc2ncnc3[nH]ccc23)cc2c1C(=O)NC21CCCCC1 [Cpd. No. 75, 6′-((7H-pyrrolo[2,3-d]pyrimidin-4-yl)amino)-4′-methylspiro[cyclohexane-1,1′-isoindolin]-3′-one] as the compound, how does the IC50 read?
**A.** The IC50 was < 50 nM.

**Q.** With CCOc1c(N)ncnc1Nc1cc(C)c2c(c1)C1(CCCCC1)NC2=O [Cpd. No. 76, 6′-((6-amino-5-ethoxypyrimidin-4-yl)amino)-4′-methylspiro[cyclohexane-1,1′-isoindolin]-3′-one] as the compound, how does the IC50 read?
**A.** Its IC50 is 50 to 1000 nM.

**Q.** Cc1cc(Nc2ncnc(N)c2C#N)cc2c1C(=O)NC21CCCCC1 [Cpd. No. 77, 4-amino-6-((4′-methyl-3′-oxospiro[cyclohexane-1,1′-isoindolin]-6′-yl)amino)pyrimidine-5-carbonitrile] was tested. Which IC50 did it give?
**A.** Its IC50 is < 50 nM.

**Q.** With COc1cc(Nc2ncnc(N)c2C)cc2c1C(=O)NC21CCCCC1 [Cpd. No. 78, 6′-((6-amino-5-methylpyrimidin-4-yl)amino)-4′-methoxyspiro[cyclohexane-1,1′-isoindolin]-3′-one] as the compound, how does the IC50 read?
**A.** The IC50 was 1000 to 100000 nM.

**Q.** Which IC50 does the source give for Cc1c(N)ncnc1Nc1cc(C(F)(F)F)c2c(c1)C1(CCCCC1)NC2=O [Cpd. No. 79, 6′-((6-amino-5-methylpyrimidin-4-yl)amino)-4′-(trifluoromethyl)spiro[cyclohexane-1,1′-isoindolin]-3′-one] here?
**A.** The IC50 was 50 to 1000 nM.

**Q.** Cc1cc(Nc2ncnc(N)c2C(F)(F)F)cc2c1C(=O)NC21CCCCC1 [Cpd. No. 80, 6′-((6-amino-5-(trifluoromethyl)pyrimidin-4-yl)amino)-4′-methylspiro[cyclohexane-1,1′-isoindolin]-3′-one] was tested. Which IC50 did it give?
**A.** The IC50 was 50 to 1000 nM.

**Q.** With Cc1cc(Nc2ncnc(N)c2OCCN)cc2c1C(=O)NC21CCCCC1 [Cpd. No. 81, 6′-((6-amino-5-(2-aminoethoxy)pyrimidin-4-yl)amino)-4′-methylspiro[cyclohexane-1,1′-isoindolin]-3′-one hydrochloride] as the compound, how does the IC50 read?
**A.** The IC50 was 50 to 1000 nM.

**Q.** For Cc1cc(Nc2ncnc(N)c2OC(F)(F)F)cc2c1C(=O)NC21CCCCC1 [Cpd. No. 83, 6′-((6-amino-5-(trifluoromethoxy)pyrimidin-4-yl)amino)-4′-methylspiro[cyclohexane-1,1′-isoindolin]-3′-one], which IC50 is on record?
**A.** Its IC50 is < 50 nM.

**Q.** How did the IC50 turn out when Cc1cc(Nc2ncnc(N)c2OC(F)F)cc2c1C(=O)NC21CCCCC1 [Cpd. No. 84, 6′-((6-amino-5-(difluoromethoxy)pyrimidin-4-yl)amino)-4′-methylspiro[cyclohexane-1,1′-isoindolin]-3′-one] was run?
**A.** Its IC50 is 50 to 1000 nM.

**Q.** For CSc1c(N)ncnc1Nc1cc(C)c2c(c1)C1(CCCCC1)NC2=O [Cpd. No. 85, 6′-((6-amino-5-(methylthio)pyrimidin-4-yl)amino)-4′-methylspiro[cyclohexane-1,1′-isoindolin]-3′-one trifluoroacetic acid salt], which IC50 is on record?
**A.** Its IC50 is 50 to 1000 nM.

**Q.** How did the IC50 turn out when Cc1cc(Nc2ncnc(N)c2S(C)(=O)=O)cc2c1C(=O)NC21CCCCC1 [Cpd. No. 86, 6′-((6-amino-5-(methylsulfonyl)pyrimidin-4-yl)amino)-4′-methylspiro[cyclohexane-1,1′-isoindolin]-3′-one] was run?
**A.** The IC50 was 50 to 1000 nM.

**Q.** With Cc1cc(Nc2ncnc(N)c2OCCCN)cc2c1C(=O)NC21CCCCC1 [Cpd. No. 87, 6′-((6-amino-5-(3-aminopropoxy)pyrimidin-4-yl)amino)-4′-methylspiro[cyclohexane-1,1′-isoindolin]-3′-one hydrochloride salt] as the compound, how does the IC50 read?
**A.** The IC50 was 50 to 1000 nM.

**Q.** With Cc1c(N)ncnc1Nc1cc(C(F)F)c2c(c1)C1(CCCCC1)NC2=O [Cpd. No. 88, 6′-((6-amino-5-methylpyrimidin-4-yl)amino)-4′-(difluoromethyl)spiro[cyclohexane-1,1′-isoindolin]-3′-one] as the compound, how does the IC50 read?
**A.** Its IC50 is 50 to 1000 nM.

**Q.** How did the IC50 turn out when Cc1c(N)ncnc1Nc1cc(F)c2c(c1)C1(CCCCC1)NC2=O [Cpd. No. 89, 6′-((6-amino-5-methylpyrimidin-4-yl)amino)-4′-fluorospiro[cyclohexane-1,1′-isoindolin]-3′-one] was run?
**A.** The IC50 was 50 to 1000 nM.

**Q.** Which IC50 does the source give for CCc1cc(Nc2ncnc(N)c2C)cc2c1C(=O)NC21CCCCC1 [Cpd. No. 90, 6′-((6-amino-5-methylpyrimidin-4-yl)amino)-4′-ethylspiro [cyclohexane-1,1′-isoindolin]-3′-one] here?
**A.** Its IC50 is 50 to 1000 nM.

**Q.** Which IC50 does the source give for Cc1c(N)ncnc1Nc1cc(C#N)c2c(c1)C1(CCCCC1)NC2=O [Cpd. No. 91, 6′-((6-amino-5-methylpyrimidin-4-yl)amino)-3′-oxospiro[cyclohexane-1,1′-isoindoline]-4′-carbonitrile] here?
**A.** Its IC50 is 1000 to 100000 nM.

**Q.** With Cc1c(N)ncnc1Nc1cc(O)c2c(c1)C1(CCCCC1)NC2=O [Cpd. No. 92, 6′-((6-amino-5-methylpyrimidin-4-yl)amino)-4′-hydroxyspiro[cyclohexane-1,1′-isoindolin]-3′-one] as the compound, how does the IC50 read?
**A.** Its IC50 is 1000 to 100000 nM.

**Q.** Cc1cc(Nc2ncnc(N)c2C)c(O)c2c1C(=O)NC21CCCCC1 [Cpd. No. 93, 6′-((6-amino-5-methylpyrimidin-4-yl)amino)-7′-hydroxy-4′-methylspiro[cyclohexane-1,1′-isoindolin]-3′-one] was tested. Which IC50 did it give?
**A.** Its IC50 is 50 to 1000 nM.

**Q.** With COc1c(Nc2ncnc(N)c2C)cc(C)c2c1C1(CCCCC1)NC2=O [Cpd. No. 94, 6′-((6-amino-5-methylpyrimidin-4-yl)amino)-7′-methoxy-4′-methylspiro[cyclohexane-1,1′-isoindolin]-3′-one] as the compound, how does the IC50 read?
**A.** The IC50 was 50 to 1000 nM.

**Q.** For Cc1cc(Nc2ncnc(N)c2C)c(Cl)c2c1C(=O)NC21CCCCC1 [Cpd. No. 96, 6′-((6-amino-5-methylpyrimidin-4-yl)amino)-7′-chloro-4′-methylspiro[cyclohexane-1,1′-isoindolin]-3′-one], which IC50 is on record?
**A.** The IC50 was 1000 to 100000 nM.

**Q.** Which IC50 does the source give for Cc1cc(Nc2ncnc(N)c2C)cc2c1C(=O)NC2 [Cpd. No. 106, 5-((6-amino-5-methylpyrimidin-4-yl)amino)-7-methylisoindolin-1-one] here?
**A.** The IC50 was 1000 to 100000 nM.

**Q.** Which IC50 does the source give for Cc1cc(Nc2ncnc(N)c2C)cc2c1C(=O)CC21CCCCC1 [Cpd. No. 110, 6′-((6-amino-5-methylpyrimidin-4-yl)amino)-4′-methylspiro[cyclohexane-1,1′-inden]-3′(2′H)-one] here?
**A.** The IC50 was 50 to 1000 nM.

Reference: US10112955B2, “Isoindoline, azaisoindoline, dihydroindenone and dihydroazaindenone inhibitors of Mnk1 and Mnk2” (eFFECTOR THERAPEUTICS, INC., priority 2015, dated 2018)
